Measured values: US5686426A, “Dicarboxymethylated glycolipid derivatives as cell adhesion inhibitors” (Bristol-Myers Squibb Company, priority 1994, dated 1997)
pIC50: −log10 of the molar value. Blank lines part the entries; values can stand above or below the compound they belong to.

Columns and labels:
[1] = system: HL-60 cells / activated platelets (P-selectin); assay: HL-60 Platelet Cell Adhesion Assay; assay type: cell-based; conditions: HL-60 cell adhesion to thrombin-activated human platelets
Description: HL-60 cells, obtained from American Type Culture Collection, were cultured in RPMI 1640 medium (GIBCO) supplemented with 20% fetal calf serum (Sigma) and 50 μg/ml gentamicin (GIBCO). Cells in log phase growth were harvested, washed and resuspended in Tyrodes buffer containing 5 mM HEPES and 0.2% bovine serum albumin and were fixed with 1% buffered formalin.
Blood from normal human donors was anticoagulated with citrate, layered over 1-Step Platelets (Accurate Chemical Co.), and centrifuged at 350 g for 20 minutes at room temperature. The platelet band was collected, diluted in 2 volumes of Tyrode's Buffer with 5 mM HEPES, 10 mM EDTA, and 0.2% BSA (pH 7.4) (THEB) and centrifuged at 600 g for 10 minutes. The platelet pellet was resuspended in THEB and incubated at room temperature for 1 hour. Calcein-acetoxy methylester (Calcein-Am, Molecular Probes) was added to the platelets at a final concentration of 10 μM and incubated for 10 minutes at 37° C. to label the platelets. Without washing, the platelets were counted on a Coulter counter model ZM, and the concentration was adjusted to 1×10^7 /ml. The platelets were activated with 2 U/ml of human thrombin for 10 minutes in Tyrode's containing 2 mM CaCl2, 5 mM HEPES, and 0.2% BSA (pH 7.4) (THB) at 37° and immediately fixed with 1% buffered formalin for 1 to 2 hours at room temperature. A small aliquot of labeled platelets was removed before activation and designated as non-activated.
Both platelets and HL-60 were washed in a ≥5 fold excess volume of Hanks Balanced Salt Solution (HBSS), resuspended in THB and counted. Cell concentrations were adjusted to 2×10^7 /ml for platelets and 4×10^6 /ml for HL-60, this ratio determined to be optimum for platelet: HL-60 cell adhesion. Compounds were incubated with 50 μl of platelets for 30 minutes at room temperature before addition of 50 μl of HL-60. This ratio of 5:1 platelets to HL-60 was incubated for 30 minutes at room temperature before addition of 0.2 ml of THB to increase the volume so the samples could be analyzed on a FACScan cytometer (Becton Dickinson). Non-activated platelets, and activated platelets with 10 mM EDTA were included as controls. Data were collected within a region set for the forward scatter channel corresponding to HL-60 size events.
The percent HL-60 cells which contained bound platelets was determined for each test condition. The inhibition of binding was determined by comparison to standards which were treated with vehicle alone (representing 0% inhibition) and standards whose specific binding had been blocked by the use of EDTA (representing 100% inhibition), by the following formula: [formula] where x=HL-60 cells containing bound platelets in the presence of the compound;
b=HL-60 cells containing bound platelets in the presence of EDTA;
a=HL-60 cells containing bound platelets in presence of compound vehicle;
z=% inhibition of platelet: HL-60 cell adhesion

[2] = system: reverse passive Arthus reaction in rats; assay: Reverse Passive Arthus Reaction in Rats (RPA); assay type: in vivo, Male Sprague Dawley rats; conditions: rat, single IV dose 3 mg, 4 hours
From the text: The reverse passive Arthus reaction in rats is a modification of the method by Mulligan et al., as described in J. Clin. Invest., (1991) 88: 1396-1406. This is an experimental model in which the interaction of antigen-antibody complexes and complement leads to a severe vasculitis that is associated with edema, induration, erythema and hemorrhage. The interaction between the antigen-antibody complexes and complement leads to a localized influx of neutrophils. These neutrophils release a variety of mediators that are associated with tissue damage and vascular permeability. The localized inflammatory reaction is measured using different techniques i.e., vascular permeability and neutrophil influx which is evaluated both biochemically and microscopically.
Male Sprague Dawley specific pathogen-free rats with jugular vein cannulae (280-320 g, Hill Top Labs, Pa.) are used in these studies. Animals are acclimated for at least 1 day and individually housed in stainless steel cages. The dorsal region of the rats is closely clipped 2 days prior to the experiments and divided into 4 sites on each side of the midline. Prior to all injections the rats are sedated with 0.4 ml per 300 gm rat of ketamine/rompun [1000 mg (10 ml) of ketamine HCL is mixed with 40 mg (2.0 ml) Rompun] administered IP and or inhalation anesthesia with metafane (methoxyflurane).
Bovin Serum Albumin (BSA) and rabbit polyclonal IgG rich in anti-BSA are purchased from Sigma Chemical Co. (St. Louis, Mo.). Radiolabelled ^125 I-BSA (spAct 1-5 μCi/μg) is purchased from Dupont NEN (Boston, Mass.).
Each rat is administered intradermal (ID) injection of (0.4 mg, 0.6 mg and 0.8 mg) anti-BSA in a volume of 100 μl per injection in normal saline. The ID injections are randomized near the mid dorsal region on both sides of the back bone. Immediately after the ID injections of the anti-BSA, the rats are administered intravenous (IV) injections of BSA (10 mg in 1.0 ml) in normal saline containing ^125 I labeled BSA (1 μCi/ml BSA or 5.0 μCi/kg body wt) for quantification of dermal vascular injury. Anti-inflammatory agents such as inhibitors of adhesion molecules of the present invention are administered IV at a single dose of 3 mg immediately after BSA. Four (4) hours after the IV injection of BSA, the rats are anesthetized with metafane and 2 to 3 ml of blood is withdrawn via the cannula into an anticoagulant containing (EDTA or Heparin) tube and plasma separated and saved for neutrophil and albumin quantitation. The rats are killed and the skin surrounding the injection site (15 mm diameter) is punched out and weighed. The skin samples and a fixed volume of plasma (0.1 to 1.0 ml) is analyzed in a gamma-counter for ^125 I content. Skin samples from the contralateral side are processed and analyzed for myeloperoxidase activity (MPO) as a measure of neutrophil accumulation. As needed, samples are also processed for histological evaluation of the reacted sites.
Vascular Permeability (VP)
The calculation of the plasma protein exudation into skin is made by determining the radioactivity in the tissue and relating this to the level of radioactive albumin in the blood at the time of sacrifice. […] [formula]
Percent inhibition of the test compound at 3 mg was determined as follows: [formula] Myeloperoxidase (MPO)
MPO is located in the azurophil granules of polymorphonuclear leukocytes (PMN). Because of its abundance in these cells (5% dry weight), this enzyme is used as a marker for tissue neutrophil content. For tissue MPO content, the method of Bradley, et al., was used as described in J. Invest. Dermatol. (1982) 78: 206-209. Biopsies from each treatment group were placed in plastic tubes (15×100 mm) containing 10 ml of 0.5% hexadecyltrimethylammonium bromide (HTAB)in 0.05M potassium phosphate buffer pH 6.0. The tissue was then homogenized with a Brinkmann Polytron homogenizer (10s). […]

P-selectin [3] = target: T1, P-selectin (Homo sapiens, UniProt P16109); conditions: literature; cited from earlier work
T1 sequence (P16109 42-830): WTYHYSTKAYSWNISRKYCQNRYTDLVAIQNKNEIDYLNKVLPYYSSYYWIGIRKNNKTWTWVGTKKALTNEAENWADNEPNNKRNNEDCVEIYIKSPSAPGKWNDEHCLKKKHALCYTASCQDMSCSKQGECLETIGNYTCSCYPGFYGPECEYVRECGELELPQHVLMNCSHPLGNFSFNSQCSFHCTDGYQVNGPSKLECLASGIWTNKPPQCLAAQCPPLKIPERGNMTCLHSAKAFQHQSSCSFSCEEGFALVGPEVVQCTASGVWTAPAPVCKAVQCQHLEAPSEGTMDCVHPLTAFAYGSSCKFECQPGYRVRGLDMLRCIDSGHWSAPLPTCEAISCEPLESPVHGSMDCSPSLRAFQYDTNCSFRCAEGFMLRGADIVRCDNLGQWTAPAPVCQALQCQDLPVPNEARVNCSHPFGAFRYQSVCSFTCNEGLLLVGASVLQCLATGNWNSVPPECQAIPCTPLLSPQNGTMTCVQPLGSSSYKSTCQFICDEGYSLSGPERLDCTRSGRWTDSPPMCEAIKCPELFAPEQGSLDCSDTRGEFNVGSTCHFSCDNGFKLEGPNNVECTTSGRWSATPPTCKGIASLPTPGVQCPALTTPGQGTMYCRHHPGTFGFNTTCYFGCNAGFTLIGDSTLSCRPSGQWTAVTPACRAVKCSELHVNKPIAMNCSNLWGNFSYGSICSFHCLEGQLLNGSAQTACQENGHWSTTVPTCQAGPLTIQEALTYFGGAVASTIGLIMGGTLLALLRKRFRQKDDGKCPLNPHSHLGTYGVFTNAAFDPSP

P-selectin [4] = target: T1, P-selectin; conditions: anionic polymers; literature; cited from earlier work

- pIC50 [1]: < 4.00
Compound: CCCCCCCCCCCCC/C=C/[C@@H](OC(=O)c1ccccc1)[C@H](CO[C@H]1O[C@H](COC(=O)c2ccccc2)[C@H](OCC(=O)O)[C@H](OCC(=O)O)[C@H]1OC(=O)c1ccccc1)NC(=O)CCCCCCCCCCCCCCC [Example 10, (2S,3R,4E)-2-Hexadecanoylamino-3-benzoyloxy-1-[3,4-di-O-carboxy-methyl-2,6-di-O-benzoyl-α-D-galactopyranosyloxy]-4-octadecene]
- RPA VP % Inhib. (vascular permeability) ([2]; 125I-BSA plasma extravasation into skin): 54%
- RPA MPO % Inhib. (myeloperoxidase, neutrophil accumulation) ([2]; skin MPO activity): 65%

Compound: CC(=O)N[C@H]1C(O)O[C@H](CO)[C@@H](O[C@@H]2O[C@H](CO)[C@H](O)[C@H](O)[C@H]2O)[C@@H]1O[C@@H]1O[C@@H](C)[C@@H](O)[C@@H](O)[C@@H]1O (stereo partly shown) [Le^x]
- binding to P-selectin (in words) (P-selectin [3]): shown to bind

Compound: dextran sulfate
- inhibition of P-selectin mediated adhesion (in words) (P-selectin [4]): shown to inhibit P-selectin mediated adhesion

Compound: fucoidan
- inhibition of P-selectin mediated adhesion (in words) (P-selectin [4]): shown to inhibit P-selectin mediated adhesion

Compound: heparin
- inhibition of P-selectin mediated adhesion (in words) (P-selectin [4]): shown to inhibit P-selectin mediated adhesion
